From patent US10268799B2, “Screening methods for thyroid hormone disruptors based on co-regulator involved simulations” (Nanjing University, priority 2016, dated 2019)
Entries after “also recorded” stand apart in the source; their conditions may differ.

Experiments:
GH3 cells = assay: GH3 cell proliferation assay (anti-TH potency); assay type: cell-based, rat; settings: for −log RIC20 (relative anti-TH potency): RIC20 (mol/L) is 20% inhibition of proliferation of GH3 cells induced by 0.5 nM T3; for TH disrupting effect determined in GH3 proliferation assay: result in words
Description: The rat pituitary tumor cell line GH3 was cultured for determination of the relative TH disrupting potencies. […] Due to cytotoxicity, the other 3 HO-PBDEs were not tested for anti-TH potencies.

human TRα-LBD = target: T1, human TRα-LBD (Homo sapiens, UniProt P10827); assay: Competitive binding assay with Fluorescein-labeled T3 probe, human TRα; settings: result in words (FIG. 2A)
T1 sequence (P10827 163-410 isoform P10827-2): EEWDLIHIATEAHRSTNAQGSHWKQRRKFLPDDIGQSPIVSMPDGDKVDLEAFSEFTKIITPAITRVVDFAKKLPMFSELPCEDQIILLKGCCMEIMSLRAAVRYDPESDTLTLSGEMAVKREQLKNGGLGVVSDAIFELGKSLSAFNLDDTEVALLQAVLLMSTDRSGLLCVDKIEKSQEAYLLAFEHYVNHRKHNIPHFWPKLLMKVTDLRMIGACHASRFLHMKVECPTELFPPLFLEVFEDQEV

SMILES	−log RIC20 (relative anti-TH potency) (GH3 cells)	TH disrupting effect determined in GH3 proliferation assay (GH3 cells)	binding affinity with TRα (human TRα-LBD)
Oc1c(Oc2ccc(Br)cc2Br)cc(Br)c(Br)c1Br [2-HO-BDE-123]	7.44	antagonists of the TR	greater affinities
Oc1c(Oc2ccc(Br)cc2Br)ccc(Br)c1Br [2′-OH-BDE-66]	7.09		
Oc1c(Br)cc(Br)cc1Oc1ccc(Br)cc1Br [2′-OH-BDE-68]	7.15		
Oc1c(Br)cc(Br)c(Oc2ccc(Br)cc2Br)c1Br [3-HO-BDE-100]	7.83		greater affinities; also recorded: one of the strongest binding ligands
Oc1c(Br)cc(Oc2ccc(Br)cc2Br)c(Br)c1Br [4-HO-BDE-90]	7.59	antagonists of the TR	
Oc1c(Br)c(Br)c(Oc2c(Br)cc(Br)cc2Br)c(Br)c1Br [4-HO-BDE-188]	8.42		
Oc1cc(Br)c(Oc2ccc(Br)cc2Br)cc1Br [4′-HO-BDE-49]	7.30		too weak to detect
Oc1cc(Br)c(Oc2cc(Br)c(Br)cc2Br)cc1Br [4′-HO-BDE-101]	8.11		
Oc1ccc(Oc2ccc(Br)cc2Br)c(Br)c1 [4′-OH-BDE-17]	6.51		
Oc1c(Br)cc(Br)c(Br)c1Oc1ccc(Br)cc1Br [6-HO-BDE-90]	7.76		
Oc1c(Br)c(Br)c(Br)c(Br)c1Oc1ccc(Br)cc1Br [6-HO-BDE-137]	8.03	antagonists of the TR	greater affinities
Oc1cc(Br)c(Br)c(Br)c1Oc1cc(Br)c(Br)c(Br)c1 [6-HO-BDE-157]	8.14		
Oc1cccc(Br)c1Oc1ccc(Br)cc1Br [6′-HO-BDE-17]	6.78		
